According to patent US8501911B2, “Methods of reducing inflammation and mucus hypersecretion” (Biomarck Pharmaceuticals, Ltd, priority 1999, dated 2013):
“And” between values parts separate entries of the source, which are not always exact repeats. Identical values can stand only once. Like-named read-outs stand apart in the source and are kept apart here. Residues, ends and D or L forms follow the SMILES beside them. *: point of attachment. Myristoyl = CCCCCCCCCCCCCC(=O)*

How the values were obtained:
NHBE cells [1] = assay: UTP-induced mucin secretion from NHBE cells (ELISA); assay type: cell-based, human; conditions: for activity at 100 µM: Homo sapiens, NHBE
Procedure: In Results-I-1D, NHBE cells were preincubated with the indicated inhibitor for 15 min and then stimulated with 100 μM UTP for 2 h. Secreted mucin in response to the treatment was collected and assayed by ELISA. Data are presented as mean±S.E. (n=6 at each point).
UTP is a well defined pathophysiologically relevant mucin secretagogue. Lethem ct al., Am. J. Respir. Cell Mol. Biol. 9, 315-322 (1993). […] To determine whether PKC and PKG were involved in regulation of mucin secretion in response to a pathophysiological stimulus, effects of PKC/PKG inhibitors on UTP-induced mucin secretion were investigated. NHBE cells were preincubated with various inhibitors for 15 min and then exposed to UTP (100 μM) plus the inhibitor for 2 h. The secreted mucin was measured by ELISA. […] Apparently, mucin secretion in NHBE cells may be regulated by a signaling mechanism involving both PKC and PKG.
Peptide Blocking Studies—NHBE cells were preincubated with either the MANS or the RNS peptide (1-100 μM) for 15 min, and then PMA (100 nM)+8-Br-cGMP (1 μM) or UTP (100 μM) was added, and cells were incubated for an additional 15 min or 2 h. respectively. Mucin secretion was measured by ELISA and experimental results are designated as Results-I-2B-1 and Results-I-2B-2, as follows.
PP2A is an essential component of the mucin secretory pathway. NHBE cells were preincubated with the indicated concentration of fostriecin, okadaic acid (500 nM), or medium alone for 15 min and then stimulated with PMA (100 nM)+8-Br-cGMP (1 μM) for 15 min or with UTP (100 μM) for 2 h. Secreted mucin was measured by ELISA. […] Thus, dephosphorylation of MARCKS by a PKG-activated PP2A appears to be an essential component of the signaling pathway leading to mucin granule exocytosis.
(§1) Measurement of Mucin Secretion by ELISA—Before collection of “base line” and “test” mucin samples, the accumulated mucus at the apical surface of the cells was removed by washing with phosphate-buffered saline, pH 7.2. To collect the base-line secretion, cells were incubated with medium alone, and secreted mucin in the apical medium was collected and reserved. Cells were rested for 24 h and then exposed to medium containing the selected stimulatory and/or inhibitory reagents (or appropriate controls), after which secreted mucin was collected and reserved as the test sample. Incubation times for the base line and the test were the same but varied depending on the test reagent utilized. Both base line and test secretions were analyzed by ELISA using an antibody capture method as known in the art. See, e.g., Harlow et al., Antibodies: A Laboratory Manual, pp. 570-573, Cold Spring Harbor Laboratory, Cold Spring Harbor, N.Y. (1988). The primary antibody for this assay was 17Q2 (Babco, Richmond, Calif.), a monoclonal antibody that reacts specifically with a carbohydrate epitope on human airway mucins. The ratio of test/base-line mucin, which is similar to a “secretory index”, was used to quantify mucin secretion, allowing each culture dish to serve as its own control and thus, minimizing deviation caused by variability among culture wells. Wright et al., Am. J. Physiol. 271, L854-L861 (1996). Levels of mucin secretion were reported as percentage of the medium control.
These experiments were carried out similarly to those described in Example 7. To test for stimulated secretion, the cells were exposed apically and basolaterally to uridine 5′-triphosphate (UTP) at a concentration of 0.1 mM in media. Cells were pre-incubated for 15 minutes with the MANS peptide and test cultures were then co-incubated with the MANS peptide and UTP for 45 minutes.
NHBE cells were pre-incubated with okadaic acid (500 nM) for 15 min at 37° C./5% CO2, then stimulated with PMA (100 nM)+8-Br-cGMP (1 μM) for 15 min, or with UTP (0.1 mM) for 2 hours. Secreted mucin in the apical medium was collected and assayed by ELISA. […]

NHBE cells [2] = assay: PMA+8-Br-cGMP-induced mucin secretion from NHBE cells (ELISA); assay type: cell-based, human; conditions: inhibitor 500 nM, 15 min preincubation, then PMA 100 nM+8-Br-cGMP 1 μM 15 min
Procedure: Peptide Blocking Studies—NHBE cells were preincubated with either the MANS or the RNS peptide (1-100 μM) for 15 min, and then PMA (100 nM)+8-Br-cGMP (1 μM) or UTP (100 μM) was added, and cells were incubated for an additional 15 min or 2 h. respectively. Mucin secretion was measured by ELISA and experimental results are designated as Results-I-2B-1 and Results-I-2B-2, as follows. […]
as §1
MARCKS-related Peptides—Both the myristoylated N-terminal sequence (MANS) and the random N-terminal sequence (RNS) peptides were synthesized at Genemed Synthesis, Inc. (San Francisco, Calif.), then purified by high pressure liquid chromatography (>95% pure), and confirmed by mass spectroscopy with each showing one single peak with an appropriate molecular mass. The MANS peptide consisted of sequence identical to the first 24 amino acids of MARCKS, i.e. the myristoylated N-terminal region that mediates MARCKS insertion into membranes, MA-[…] (SEQ ID NO: 1) (where MA=N-terminal myristate chain). The corresponding control peptide (RNS) contained the same amino acid composition as the MANS but arranged in random order, MA-[…] (SEQ ID NO: 26). The presence of the hydrophobic myristate moiety in these synthetic peptides enhances their permeability to the plasma membranes, enabling the peptides to be taken up readily by cells. To determine the effects of these peptides on mucin secretion, cells were preincubated with the peptides for 15 min prior to addition of secretagogues, and mucin secretion was then measured by ELISA.
Antisense Oligonucleotides—MARCKS antisense oligonucleotide and its corresponding control oligonucleotide were synthesized at Biognostik GmbH (Gottingen, Germany). NHBE cells were treated with 5 μM antisense or control oligonucleotide apically for 3 days (in the presence of 2 μg/ml lipofectin for the first 24 h). Cells were then incubated with secretagogues, and mucin secretion was measured by ELISA. Total RNA and protein were isolated from treated cells. MARCKS mRNA was assessed by Northern hybridization according to conventional procedures using human MARCKS cDNA as a probe. MARCKS protein level was determined by Western blot using purified anti-MARCKS IgG1 (clone 2F12) as the primary detection antibody.
The effect on mucus secretion of a myristoylated peptide containing the first 24 amino acids of the human MARCKS protein (MANS; myristoylated N-terminal sequence; SEQ ID NO: ) was tested. Cultured normal human bronchial epithelial cells as described above were used. […]

human neutrophils = assay: Human neutrophil chemotactic migration assay; assay type: cell-based; conditions: test peptide 50 μM; fMLP 100 nM; 0 = inactive
Procedure: Human neutrophils were isolated from heparinized whole blood collected from healthy adult donors via cephalic venipuncture by a slightly modified method as described by Akasaki et al., 1999 (Akasaki T, Koga H, and Sumimoto H., Phosphoinositide 3-kinase-dependent and -independent activation of the small GTPase Rac2 in human neutrophils, J. Biol. Chem. 274:18055-18059, 1999). The blood was mixed with dextran (final concentration 1.4% dextran) and then allowed to settle for 60 minutes, after which time the leukocyte rich plasma was collected and layered onto 5 mL of Ficoll-Paque PLUS in 15 ml, conical tubes. The plasma was centrifuged at 1800 rpm for 20 minutes at room temperature. The residual erythrocytes were lysed utilizing a hypotonic saline and the remaining neutrophils were re-suspended in Hank's balanced salt solution containing 20 mM HEPES and 8.9 mM sodium bicarbonate without calcium or magnesium (HBSS), yielding neutrophils that were greater than 98% pure and greater than 99% viable.
Neutrophil migration assay was performed according to the method described by Frevert C W, Wong V A, Goodman R B, Goodwin R, and Martin T R., Rapid fluorescence-based measurement of neutrophil migration in vitro, J. Immunol. Methods, 213:41-52, 1998. Human neutrophils were labeled with the fluorescent dye calcein for 30 minutes at room temperature. Cells were then washed and resuspended in a migration buffer containing HBSS with 2% FCS. Cells were treated with buffer alone or with the indicated test peptide (50 μM) for 30 minutes at 37° C. Treated cells (1×10^4 cells) were then placed on the upper side of a ChemoTx® chemotaxis plate (Neuroprobe, Gaithersburg, Md.) membrane (2 μm pore size). Lower wells of the plate were filled with migration buffer alone or with buffer containing fMLP (100 nM), LTB4 (100 nM), or PAF (100 nM). Wells containing 1×10^4 labeled cells were used as standards to calculate migration percentage. Cells were allowed to migrate for 1 hour at 37° C. After incubation, cells on the top of the filter were washed away with PBS. Followed by this, 0.5 mM EDTA was added to the top of the filter for 5 min to detach adherent cells and the membrane was again washed. The plate was then centrifuged at 1000 rpm for 1 min. The filter was removed and the fluorescence was measured in the lower wells (485 nm excitation, 530 nm emission wavelength) using an fMax fluorescence plate reader (Molecular Devices, Sunnyvale, Calif.). Percent migration was determined by dividing the fluorescence of each well by the fluorescence of the standard wells containing 1×10^4 labeled cells. A lesser number of migrated neutrophils in the bottom compartment is indicative of the test peptide being an inhibitor of inflammation.

MARCKS = MARCKS phosphorylation in NHBE cells (radiolabeled immunoprecipitation assay); assay type: cell-based, human
Procedure: NHBE cells were labeled with [^32 P]orthophosphate and then exposed to the reagents: (a) Rp-8-Br-PET-cGMP (100 μM); (b) okadaic acid (500 nM); (c) 8-Br-cGMP (1 μM); and (d) PMA (100 nM). MARCKS phosphorylation in response to the treatments was evaluated by immunoprecipitation assay.
To reveal molecular events by which MARCKS links kinase activation to mucin secretion, phosphorylation of MARCKS in response to PKC/PKG activation was investigated in depth, and results are presented as Results-I-4A. […] Once phosphorylated, MARCKS was translocated from the plasma membrane to the cytoplasm. More specifically, the activation of PKC results in MARCKS phosphorylation in NHBE cells. Cells were labeled with [^32 P]orthophosphate for 2 h and then exposed to the stimulatory and/or inhibitory reagents (see below). MARCKS phosphorylation in response to the treatments was evaluated by immunoprecipitation with the following specifics, designated Results-I-4A:
[^32P]phosphate, cells were preincubated for 2 h in phosphate-free Dulbecco's modified Eagle's medium containing 0.2% bovine serum albumin and then labeled with 0.1 mCi/ml [^32 P]orthophosphate (9000 Ci/mmol, PerkinElmer Life Sciences) for 2 h. For labeling with [^3H]myristic acid or ^3H-amino acids, cells were incubated overnight in medium containing 50 μCi/ml [^3H]myristic acid (49 Ci/mmol, PerkinElmer Life Sciences) or 0.2 mCi/ml [^3H]leucine (159 Ci/mmol, PerkinElmer Life Sciences) plus 0.4 mCi/ml [^3H]proline (100 Ci/mmol, PerkinElmer Life Sciences). Following labeling, cells were exposed to stimulatory reagents for 5 min. When an inhibitor was used, cells were preincubated with the inhibitor for 15 min prior to stimulation. At the end of the treatments, cells were lysed in a buffer containing 50 mM Tris-HCl (pH 7.5), 150 mM NaCl, 1 mM EDTA, 10% glycerol, 1% Nonidet P-40, 1 mM phenylmethylsulfonyl fluoride, 1 mM benzamidine, 10 μg/ml pepstatin A, and 10 μg/ml leupeptin. Trichloroacetic acid precipitation and scintillation counting may determine the radiolabeling efficiency in each culture. Immunoprecipitation of MARCKS protein was carried out according to the method of Spizz and Blackshear using cell lysates containing equal counts/min. Spizz et al., J. Biol. Chem. 271, 553-562 (1996). Precipitated proteins were resolved by 8% SDS-polyacrylamide gel electrophoresis and visualized by autoradiography. Anti-human MARCKS antibody (2F12) and nonimmune control antibody (6F6) were used in this assay.
Phosphorylation of MARCKS by PMA was attenuated by Calphostin C (500 nM). NHBE cells also contained substantial amounts of cGMP-dependent protein kinase type 1α (PKG-1α) activity, which was localized to the cytosolic fraction. […] In addition, the phosphorylation of MARCKS induced by PMA was reversed by incubation with 8-Br-cGMP (10 μM).

[3] = inhibitor 500 nM, 15 min preincubation, then UTP 100 μM 2 h

## CCCCCCOC(=O)[C@]1(O)C[C@@H]2O[C@@]1(C)n1c3ccccc3c3c4c(c5c6ccccc6n2c5c31)C(=O)NC4 [KT5720]
NHBE cells [1]; [3]
  Mucin secretion as percent of control: 157% and 160%
NHBE cells [2]
  Mucin secretion as % of control: did not affect

## O=c1ccn([C@@H]2O[C@H](COP(=O)(O)OP(=O)(O)OP(=O)(O)O)[C@@H](O)[C@H]2O)c(=O)[nH]1 [UTP, uridine 5′-triphosphate]
NHBE cells [1]; 0.75 h, 0.1 mM UTP 45 min, no peptide (Results-M-2), read-out: Mucin secretion, % of control levels
  activity at 100 µM: 159%
NHBE cells [1]; 2 h, UTP 100 μM (0.1 mM) 2 h, no inhibitor, read-out: Mucin secretion as percent of control
  activity at 100 µM: 159%
NHBE cells [1]; UTP 100 μM (0.1 mM) 2 h, no inhibitor
  Mucin secretion as percent of control: 156% and 161% and 152%

## CCCCCCCCCCCCCC(=O)NCC(=O)N[C@@H](C)C(=O)N[C@@H](CCC(N)=O)C(=O)N[C@@H](Cc1ccccc1)C(=O)N[C@@H](CO)C(=O)N[C@@H](CCCCN)C(=O)N[C@H](C(=O)N[C@@H](C)C(=O)O)[C@@H](C)O [SEQ ID NO: 17, N-myristoyl-GAQFSKTA] (Myristoyl-GAQFSKTA-OH; C-terminus assumed)
Human neutrophils
  Neutrophil Migration (% Inhibition), fMLP: 92.2%

## O=C1C(Nc2ccccc2)=CC(=O)c2ncccc21 [LY83583]
NHBE cells [1]; inhibitor 50 μM, 15 min preincubation, then UTP 100 μM 2 h
  Mucin secretion as percent of control: 111% and 112%

## Calphostin C
MARCKS; inhibitor 500 nM + 100 nM PMA
  MARCKS phosphorylation (band in immunoprecipitation assay): attenuated
MARCKS; inhibitor 500 nM alone
  MARCKS phosphorylation (band in immunoprecipitation assay): dark band
NHBE cells [1]; [3]
  Mucin secretion as percent of control: 120%
NHBE cells [1]; inhibitor 500 nM, 15 min preincubation, then UTP 100 μM 2 h, listed as calphostin C
  Mucin secretion as percent of control: 121%
